Test results published in patent publication US5447717A, “Cholesterol-lowering agents” (Merck & Co., Inc., priority 1993, dated 1995).

What was measured:
[1] = tested on: Ras; details: Hancock et al.; Casey et al.; Schafer et al.; cited from earlier work
[2] = molecular target: T1, Squalene Synthase (Rattus norvegicus, UniProt Q02769); test: Squalene Synthase Assay (in vitro, rat liver microsomes); format: biochemical; details: [4-14C]farnesyl pyrophosphate, 30° C., 20 minutes
T1 construct: from tissue; host or cells: rat liver microsomes (male Charles River CD rats, fed 0.1% lovastatin for 4 days)
T1 sequence (Q02769 1-416): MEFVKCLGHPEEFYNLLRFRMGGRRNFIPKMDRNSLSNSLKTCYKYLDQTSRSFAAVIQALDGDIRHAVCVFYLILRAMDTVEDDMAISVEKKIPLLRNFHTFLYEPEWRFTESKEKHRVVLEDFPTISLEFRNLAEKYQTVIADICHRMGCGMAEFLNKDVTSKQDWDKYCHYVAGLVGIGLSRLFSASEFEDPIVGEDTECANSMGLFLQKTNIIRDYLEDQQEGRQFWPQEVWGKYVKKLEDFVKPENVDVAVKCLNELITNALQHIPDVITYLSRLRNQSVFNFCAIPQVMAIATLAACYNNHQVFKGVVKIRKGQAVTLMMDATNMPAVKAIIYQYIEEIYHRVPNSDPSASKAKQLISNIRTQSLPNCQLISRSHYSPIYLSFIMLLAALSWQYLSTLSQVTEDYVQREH
Procedure: The intrinsic squalene synthase inhibitory activity of representative compounds of this invention was measured by the standard ill vitro protocol described below:
Preparation of Rat Liver Microsomes
Male, CHARLES RIVER CD® rats (120 to 150 g) were fed a diet containing 0.1% lovastatin for 4 days. The livers from these rats were homogenized in 5 volumes (mL/g) of ice cold 50 mM HEPES (4-(2-hydroxyethyl)-1-piperazine-ethanesulfonic acid), 5 mM EDTA(ethylenediaminetetraacetic acid) pH 7.5 with a Potter-Elvehjem type tissue grinder. The homogenate was centrifuged twice at 20,000 × g for 15 min. at 4° C., discarding the pellet each time. The supernatant was then centrifuged at 100,000 × g for 1 hr at 4° C. The resulting microsomal pellet was resuspended in a volume of the above homogenizing buffer equal to one-fifth the volume of the original homoSenate. This microsomal preparation has a protein concentration of about 7 mg/mL. The microsomal suspensions were stored in aliquots at -70° C. Squalene synthase activity in these aliquots is stable for a least several months.
Partial Purification of Prenyl Transferase
Prenyl transferase was purified to use in the enzymatic synthesis of radiolabelled farnesyl pyrophosphate. […]

| IC50 [2] [nM] | Structure (SMILES) | Inhibition of Ras farnesylation in vivo [1] |
| --- | --- | --- |
| – | CC[C@H](C)C(=O)O[C@H]1CCC=C2C=C[C@H](C)[C@H](CC[C@@H]3C[C@@H](O)CC(=O)O3)[C@H]21 [compactin] | Inhibition of Ras farnesylation in vivohas been demonstrated |
| – | CC[C@H](C)C(=O)O[C@H]1C[C@@H](C)C=C2C=C[C@H](C)[C@H](CC[C@@H]3C[C@@H](O)CC(=O)O3)[C@H]21 [lovastatin] | Inhibition of Ras farnesylation in vivohas been demonstrated |
| 0.4 | C=C(CCC12OC3C(=O)OC3(C(=O)O)C(C(=O)O)(O1)C(OC(=O)/C=C/C(C)CC(C)CC)C2O)C(OC(C)=O)C(C)Cc1ccccc1 (stereo not drawn) [Compound 1, IIA-β-Lactone] | – |
